{"source": "patent US20150352207A1", "about": "“USE OF ANTIBODIES AGAINST ICAM-1 IN COMBINATION WITH AN ANTI CANCER DRUG IN THE TREATMENT OF PATIENTS” (BIOINVENT INTERNATIONAL AB, priority 2013, published 2015)", "molecules": {"B1": {"name": "297Q B11: FcγR-binding deficient mutant IgG1 (N297Q IgG1) isotype switch variant of B11 (antibody, V domains shown)", "VH": "EVQLLESGGGLVQPGGSLRLSCAASGFTFSNAWMSWVRQAPGKGLEWVAFIWYDGSNKYYADSVKGRFTISRDNSKNTLYLQMNSLRAEDTAVYYCARYSGWYFDYWGQGTLVTVSS", "VL": "QSVLTQPPSASGTPGQRVTISCTGSSSNIGAGYDVHWYQQLPGTAPKLLIYDNNNRPSGVPDRFSGSKSGTSASLAISGLRSEDEADYYCQSYDSSLSAWLFGGGTKLTVLG"}, "B2": {"name": "IgG4 B11: human IgG4 isotype switch variant of B11 (antibody, V domains shown)", "VH": "B1 VH", "VL": "B1 VL"}}, "key": {"[1]": {"test_system": "ICAM-1 on MM cells (CD38+/mCD45-)", "assay": "ICAM-1 expression on myeloma cells from treated mice (disseminated RPMI-8226 model, flow cytometry)", "type": "in vivo, SCID mice", "details": "tumor cells isolated from mice treated with standard of care therapies", "experimental": "Organs for FACS analysis were collected at scarification of mice, and cells from tissues were prepared by mechanistic dissociation and dispase/collagenase enzymatic digestion (Gibco, France). Cells were stained with anti-human CD38 antibody (PerCP-Cy5, Becton Dickinson), an anti-mouse CD45 (PE, Becton Dickinson) and human ICAM-1 (B11 IgG1 AF647, BioInvent) and incubated in the dark for 15 min at room temperature. After the incubation, cells were washed twice and the surface fluorescence of cells was analyzed with a flow cytometer apparatus (LSRII) at the Flow Cytometry Facility of the University of Burgundy.\n200 μl containing 10×10^6 of RPMI 8226 tumour cells was intravenously injected into the caudal vein of female SCID mice. The mice had been subjected to a whole body irradiation of mice (1.8 Gy, ^60Co, BioMEP) 24 to 72 hours prior to cell injection. At D1, tumor injected mice were randomized according to their individual body weight. All treatment started day 5 after tumor cell administration except for ALKERAN®, which started at day 10. All treatments were injected in a dose volume of 10 ml/kg/inj. Mice received one of the following treatments:\nThe health status and behavior of mice was recorded every day and body weight of mice was recorded twice a week. […] Upon termination, bone marrow, spinal cord, adrenal glands and kidneys were collected and examined for ICAM-1 expression on tumor cells. To distinguish cells of human versus murine origin, an anti-mouse CD45 mAb was used CD45. […] In addition, cells were stained with AF647 conjugated anti ICAM-1 mAb and thereafter analyzed in a FACS LSRII. Bone marrow was mechanically dissociated to a single cell suspension whereas adrenal glands, kidneys and spinal cord cells were prepared using a combination of mechanistic dissociation and dispase/collagenase digestion (Gibco, France). Prior to the experiment, dispase and collagenase treatments were shown not to effect ICAM-1 levels on MM cell lines."}, "[2]": {"test_system": "ARH-77 cells", "assay": "Subcutaneous scid/ARH-77 xenograft, treatment from the day after cell inoculation (prophylactic model)", "details": "for anti-tumor activities of IgG B11 isotype switch variants (rank order): twice weekly treatment, s.c. ARH-77", "description": "Tumor cells were injected subcutaneously into the left flank of SCID mice. Mice received twice-weekly intraperitoneal injections with B11, control antibody or rituximab at doses of 20, 2 and/or 0.2 mg/kg commencing one day after tumor cell inoculation. There were 8 to 10 animals per treatment group. (A) Tumor volume as a function of antibody dose. (B) Kaplan-Meier survival graph as a function of antibody dose. […] Statistical significance was calculated relative to control antibody treatment using Kruskal-Wallis Test (Nonparametric ANOVA) with Dunn's Multiple Comparisons Test (tumor volume) or the log-rank test (mouse survival) using Graphpad Instat or Prism software, respectively. Statistical significance was considered for *p<0.05, **p<0.01, and ***p<0.001.\nTumor cells were injected subcutaneously into the left flank of SCID mice. Mice received twice-weekly intraperitoneal injections with B11 at doses of 0.02-20 mg/kg commencing day after tumor cell inoculation. There were 8-10 animals per treatment group. (A) Tumor volume as a function of antibody dose. (B) Kaplan-Meier survival graph as a function of antibody dose. Statistical significance was calculated relative to control antibody treatment using Kruskal-Wallis Test (Nonparametric ANOVA) with Dunn's Multiple Comparisons Test (tumor volume) or the log-rank test (mouse survival) using Graphpad Instat or Prism software, respectively. Statistical significance was considered for *p<0.05, **p<0.01, and ***p<0.001. Graphs illustrate representative experiments out of several performed.\n(A) ARH-77 cells were injected subcutaneously into the left flank of SCID mice (n=8 per group). Mice were treated with the different B11 isotypes twice weekly. […] Statistical significance was calculated relative to control antibody treatment using Kruskal-Wallis Test (Nonparametric ANOVA) with Dunn's Multiple Comparisons Test. Statistical significance was considered for *p<0.05, **p<0.01, and ***p<0.001.\nMice were anaesthetized with a mixture of sevofluran and oxygen prior to myeloma cell inoculation and 1-5×10^6 myeloma cells were then subcutaneously injected in a volume of 100 μl into the left flank. Treatment with antibodies by intraperitonial (i.p.) injections was started either the day after cell inoculation (prophylactic model) or when tumors reached a size of approximately 100 mm^3 (established model)."}, "[3]": {"test_system": "ICAM-1 expressing tumor cell lines", "assay": "Complement-dependent cytotoxicity (CDC) in tumor cell lines", "type": "cell-based", "details": "panel of ICAM-1 expressing tumor cell lines", "experimental": "Target cells were harvested and incubated in RPMI medium with antibodies at 5 μg/mL or at titrated concentrations between 0.01-100 μg/mL for 60 min on ice. Cells were thereafter washed and resuspended in cold medium before dispension into flow cytometry tubes. Treatments were performed in triplicates. Human serum, normal or heat-inactivated, (Sigma, Sweden) was added to tubes and the samples were incubated for 2 h at 37° C. After completed incubation ToPo-Pro-3 was added at a final concentration of 0.3 μM and cells were analyzed for membrane permeabilization using flow cytometry."}, "[4]": {"test_system": "ARH-77 tumors", "assay": "Advanced (established, palpable tumors) scid/ARH-77 xenograft model", "details": "IgG B11 effective even at 100-fold lower dose (0.2 mg/kg) than rituximab", "description": "Mice were anaesthetized with a mixture of sevofluran and oxygen prior to myeloma cell inoculation and 1-5×10^6 myeloma cells were then subcutaneously injected in a volume of 100 μl into the left flank. Treatment with antibodies by intraperitonial (i.p.) injections was started either the day after cell inoculation (prophylactic model) or when tumors reached a size of approximately 100 mm^3 (established model). Antibodies were administrated in PBS in a total volume of 200 μL. Treatment with PBS or isotype control was used as control. Tumors were measured with a digital calliper and the tumor volumes were calculated according to formula: width^2×length×0.52. Animals were sacrificed when the tumor sizes reached the ethical limit of 1.5 cm. Surviving mice were sacrificed after a maximum of 5 months. Blood samples collected from the vena cava were centrifuged at 2500 g for 15 min to obtain serum and the samples were stored at −20° C. Tumors were removed for immunohistochemistry, snap frozen and were kept at −85° C."}, "[5]": {"test_system": "HUVEC and HMVEC endothelial cells", "assay": "PCD in normal ICAM-1 expressing endothelial cells", "type": "cell-based", "details": "resting or activated HUVEC/HMVEC", "experimental": "Target cells were seeded in 96-well culture plates at a density of 2×10^6 cells/mL culture medium. Titrated concentrations of IgG1 B11 or different negative and positive control antibodies were added to the cells, in the absence or presence of anti-human Fab fragment (Jackson ImmunoResearch) for cross-linking. The cells were then incubated for 16 hours at 37° C. in a humidified atmosphere of 5% CO2. The cells were harvested and stained for Annexin V-488/Propidium Iodide (Invitrogen, Sweden) and analysed using flow cytometer (FACS Calibur, BD Bioscience)."}, "[6]": {"test_system": "ARH-77 cells", "assay": "Disseminated scid/ARH-77 model of multiple myeloma", "type": "in vivo, scid mice", "details": "i.v. on Days 7, 10, 13, 16; antibody 2 mg/kg, bortezomib 0.5 mg/kg; vs control treatment", "experimental": "ARH-77 cells or RPMI-8226 were injected intravenously into the SCID mice. (A) ARH-77 model. Animals received intravenous injections with antibody at 2 mg/kg or bortezomib (Velcade) at 0.5 mg/kg on Days 7, 10, 13, and 16 (as indicated by arrows in the graph). (B) RPMI-8226-model. B11 or control mAb was administered i.v at 2 mg/kg, twice weekly for 8 weeks, bortezomid, at 1 mg/kg, once weekly for 8 weeks, lenalidomide p.o with 2 mg/kg for 2 cycles consisting of 5 days of treatment and 2 days of wash out, melphalan i.v at 3 mg/kg, once weekly for 8 weeks, and dexamethasone (DXH) at 6 mg/kg/inj 3 times/week for 2 consecutive weeks. There were 6-10 mice per treatment group. Statistical significance was calculated using Log-rank Graphpad Prism software and determined at ***p<0.001. (C) To study the ICAM-1 level on human cells, the cells from different organs were stained and gated for CD38+/mCD45−/B11+. Left panel indicates the percentage of B11 positive cells in CD38+/mCD45 population and right panel the mean fluorescent intensity of the positive cells.\nThe anti-myeloma effect of B11 was examined in a disseminated model of multiple myeloma. The early and advanced disseminated model of multiple myeloma was performed at Oncodesign, Dijon, France. Briefly: 1×10^6 (early) or 5×10^6 (advanced) ARH-77 tumor cells in 200 μL of RPMI 1640 were injected intravenously (i.v) into the caudal vein of female scid mice (D0). Tumor cell injections were performed twenty four to forty eight hours after a whole body irradiation of mice (1.8 Gy, ^60Co, INRA, BRETENNIERES). The treatment was started at D5 RPMI-8226 model or D7 (ARH-77 model) […]. B11 or control mAb was administered i.v. at 2 mg/kg, twice weekly for 8 weeks, bortezomib, at 1 mg/kg, once weekly for 8 weeks, lenalidomide p.o with 2 mg/kg for 2 cycles consisting of 5 days of treatment and 2 days of wash out, melphalan i.v. at 3 mg/kg, once weekly for 8 weeks, and dexamethasone at 6 mg/kg 1 injected 3 times a week for 2 consecutive weeks.\nThe disseminated model of scid/ARH-77 is a well-established experimental model that resembles human multiple myeloma disease progression and disease manifestation in many respects (33). We utilized this model to further characterize IgG B11 anti-myeloma activity (FIG. 6A). Intravenous injection of irradiated scid mice with 1×10^6 ARH-77 cells was previously shown to result in their dissemination and establishment in mouse bone-marrow, and resulting osteolytic bone-lesions and hypercalcemia, and ultimately, in animal paralysis or difficulty of breathing at which time animals were immediately sacrificed. […]"}, "[7]": {"assay": "Serum antibody levels of treated xenografted mice (ELISA)", "type": "in vivo", "details": "Dose 2 mg/kg; serum at end of experimentation", "experimental": "We next performed a dose-titration experiment to establish IgG B11 in vivo potency and the minimal dose achieving maximal anti-tumor activity, using the scid/ARH-77 model system. […] Mouse serum antibody trough concentrations were determined by ELISA at the end of experimentation. Trough antibody concentrations were then plotted against percent of maximal in vivo anti-tumour activity, and against percent of maximal ICAM-1 receptor occupancy and tumour cell PCD at corresponding antibody concentrations in vitro (FIGS. 3C, 3D, 3E, 3F and 3G). Strikingly, a near perfect correlation between antibody concentration and in vitro tumour cell receptor occupancy, in vitro tumor cell PCD, and in vivo anti-tumour activity was observed, consistent with ICAM-1 dependent direct cell cytotoxicity underlying in vivo anti-tumour activity."}, "[8]": {"test_system": "B lymphoma cell line (CL-01)", "assay": "Antibody-dependent cell-mediated cytotoxicity (ADCC) with natural killer effector cells", "type": "cell-based", "details": "human Natural Killer effector cells", "excerpt": "Buffy coats from human donors (ordered through Blodcentralen, Lund) were used to isolate peripheral blood mononuclear cells (PBMCs), and subsequently NK cells. Briefly, peripheral blood components were separated using Ficoll Paque PLUS (Amersham Biosciences, Sweden) in LeucoSep tubes (Greiner Bio-One). The PBMC fraction was removed and thoroughly washed in ice-cold DPBS (Invitrogen), before magnetic labeling and separation of the NK cell population using positive or negative NK cell isolation kits and MACS LS columns (Miltenyi Biotec). The purity of the obtained NK cell fractions was analyzed using flow cytometry, after staining with α-CD56 antibodies (BD Biosciences). Target cells were harvested, and incubated in medium with or without the respective antibodies (2 μg/mL) for 60 min on ice. Cells were thereafter washed and resuspended in cold medium before dispension into FACS tubes. Subsequently, isolated NK cells were diluted in ADCC medium and dispensed together with the respective antibody-coated target cells at varying effector/target cell ratios (40:1, 20:1, 5:1 and 1:1). All experiments were performed in triplicates. After completed incubation ToPo-Pro-3 dye and counting beads (Invitrogen) were added and cells were analyzed for membrane permeabilization using flow cytometry."}, "[9]": {"biological_target": "T1, human FcγRIIIa (Homo sapiens, UniProt P08637)", "T1 construct": "made in house; host or cells: HEK293E (transient, adherent)", "T1 sequence (P08637 17-254)": "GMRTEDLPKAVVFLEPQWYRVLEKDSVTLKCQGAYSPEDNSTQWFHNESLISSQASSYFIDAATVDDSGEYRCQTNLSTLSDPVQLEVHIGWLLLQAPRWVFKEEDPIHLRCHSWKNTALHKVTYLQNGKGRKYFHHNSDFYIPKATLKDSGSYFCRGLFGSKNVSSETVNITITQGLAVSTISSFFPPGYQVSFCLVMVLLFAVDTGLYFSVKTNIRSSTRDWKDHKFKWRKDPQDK", "assay": "B11 isotype variant binding to FcγR (Biacore), human FcγRIIIa", "experimental": "His-tagged human FcγRIIIa or mouse FcγRIV were expressed transient in adherent HEK293E cells, purified using Ni-NTA chromatography and characterized using SDS-PAGE and/or Biacore. Surface plasmon resonance (SPR) measurements were performed using a Biacore 3000 instrument. Goat α-human-F(ab)′2 F(ab)′2 fragment (Jackson laboratories) was immobilised with a CM-5 chip using a standard amine coupling protocol. IgG1 B11, IgG4 B11, or 297Q B11 were diluted to 15 and 60 μg/mL respectively and added to the surface at […] for 3 min. His tagged human FcγRIIIa or mouse FcγRIV were pre-incubated with an α-HIS antibody (R&D Systems) at a 2:1 molar ratio before addition to the chip surface, 30 μL/min, 1 min. After each cycle the surface was regenerated twice with glycine buffer pH 1.7."}}, "data": [{"molecule": "N[C@@H](Cc1ccc(N(CCCl)CCCl)cc1)C(=O)O", "note": "[melphalan]", "values": [{"measurement": "ICAM-1 expression on tumor cells after treatment", "setting": "[1]; listed as AIKERAN®", "result": "still expressed at unchanged, high levels"}, {"measurement": "ICAM-1 expression on tumor cells after treatment", "setting": "[1]; listed as alkeran", "result": "retained"}]}, {"molecule": "rituximab [reference compound]", "values": [{"measurement": "tumor growth", "setting": "[2]; 20 mg/kg twice weekly i.p., commencing one day after tumor cell inoculation", "result": "significant anti-tumor activity albeit less efficaciously so compared to IgG B11"}, {"measurement": "induction of CDC", "setting": "[3]", "result": "effectively induced CDC"}, {"measurement": "animal survival", "setting": "[4]", "result": "incapable of reducing tumor growth or promoting animal survival"}, {"measurement": "tumor growth", "setting": "[4]", "result": "incapable of reducing tumor growth"}]}, {"molecule": "CC(=O)O[C@H]1C(=O)[C@@]2(C)[C@H]([C@H](OC(=O)c3ccccc3)[C@]3(O)C[C@H](OC(=O)[C@H](O)[C@@H](NC(=O)c4ccccc4)c4ccccc4)C(C)=C1C3(C)C)[C@]1(OC(C)=O)CO[C@@H]1C[C@@H]2O", "note": "[paclitaxel, reference compound]", "values": [{"measurement": "programmed cell death of normal endothelial cells", "setting": "[5]", "result": "induced significant endothelial cell and B cell programmed cell death"}]}, {"molecule": "CC(C)C[C@H](NC(=O)[C@H](Cc1ccccc1)NC(=O)c1cnccn1)B(O)O", "note": "[bortezomib, reference compound]", "values": [{"measurement": "animal survival", "setting": "[6]", "result": "did not significantly enhance animal survival"}, {"measurement": "time to symptomatic disease onset", "setting": "[6]", "result": "insignificantly delayed disease onset"}, {"measurement": "ICAM-1 expression on tumor cells after treatment", "setting": "[1]; listed as VELCADE®", "result": "still expressed at unchanged, high levels"}, {"measurement": "ICAM-1 expression on tumor cells after treatment", "setting": "[1]; listed as bortesomib", "result": "retained"}]}, {"molecule": "Nc1cccc2c1CN(C1CCC(=O)NC1=O)C2=O", "note": "(stereo not drawn) [lenalidomide]", "values": [{"measurement": "ICAM-1 expression on tumor cells after treatment", "setting": "[1]; listed as Revlimid®", "result": "still expressed at unchanged, high levels"}, {"measurement": "ICAM-1 expression on tumor cells after treatment", "setting": "[1]; listed as revlimid", "result": "retained"}]}, {"molecule": "B1", "values": [{"measurement": "In vivo IgG Levels", "setting": "[7]", "result": "9.6 ± 3.", "unit": "μg/mL"}, {"measurement": "ADCC of target tumor cells", "setting": "[8]", "result": "did not mediate ADCC of target tumor cells"}, {"measurement": "anti-tumor activities of IgG B11 isotype switch variants (rank order)", "setting": "[2]", "result": "increased in the order of IgG1N297Q<IgG4<IgG1"}, {"measurement": "binding to human FcγRIIIa", "setting": "[9]", "result": "did not bind to human FcγRIIIa"}]}, {"molecule": "B2", "values": [{"measurement": "In vivo IgG Levels", "setting": "[7]", "result": "13 ± 3.1", "unit": "µg/mL"}, {"measurement": "ADCC of target tumor cells", "setting": "[8]", "result": "did not mediate ADCC of target tumor cells"}, {"measurement": "anti-tumor activities of IgG B11 isotype switch variants (rank order)", "setting": "[2]", "result": "increased in the order of IgG1N297Q<IgG4<IgG1"}, {"measurement": "binding to human FcγRIIIa", "setting": "[9]", "result": "did not bind to human FcγRIIIa"}]}]}
